# According to US11345711B2, “8,9-dihydroimidazo[1,2-a]pyrimido[5,4-e]pyrimidin-5(6H)-ones” (IMPACT THERAPEUTICS (SHANGHAI), INC, priority 2016, dated 2022):
# pIC50, pKd: −log10 of the molar value. Read-outs that look alike come from different tables or passages of the source.
# Experiments:
# Wee1 (h) = Wee1 (h) (Homo sapiens, UniProt P30291); experiment: Wee1 kinase (h) detection method, [γ-33P]-ATP filter assay; type: biochemical
# advanced solid tumors = conditions: cited from earlier work
# LoVo cells = experiment: MTT based cell viability assay on LoVo cells; conditions: Homo sapiens, LoVo, 72 h, 3 d, read-out: IC50, growth inhibition of LoVo cells
# Procedure, shortened: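 Inhibition of LoVo proliferation was derived as IC50 from a sigmoidal dose-response fit of cell survival. Readout was MTT (0.5 mg/mL, 4 h) with absorbance at 552/630/690 nm, after 3-day treatment at 37 °C. Eight-point series from 10 μM to 0.01 μM, DMSO control, 1% DMSO final.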
# NCI-H1299 cells = experiment: MTT based cell viability assay on NCI-H1299 cells; conditions: Homo sapiens, read-out: IC50, growth inhibition of NCI-H1299 cells
# Procedure, shortened: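 NCI-H1299 cells (1000/well, settled overnight) were exposed for 3 d at 37 °C, 5% CO2, to an eight-point series of 10 μM to 0.01 μM plus DMSO blank, as prepared in DMSO (final DMSO 1‰). MTT (0.5 mg/mL, 4 h) was read at 552/630/690 nm. IC50 came from sigmoidal dose-response fits of survival.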
# [1] = target: T1, human Wee1 (amino acids M291 to K575) (Homo sapiens, UniProt P30291); experiment: Wee1 dissociation constant (Kd), KINOMEscan KdELECT competitive binding test; conditions: 11-point 3-fold dilution
# T1 construct: host or cells: E. coli BL21 infected with T7 phage
# T1 sequence (P30291 291-575): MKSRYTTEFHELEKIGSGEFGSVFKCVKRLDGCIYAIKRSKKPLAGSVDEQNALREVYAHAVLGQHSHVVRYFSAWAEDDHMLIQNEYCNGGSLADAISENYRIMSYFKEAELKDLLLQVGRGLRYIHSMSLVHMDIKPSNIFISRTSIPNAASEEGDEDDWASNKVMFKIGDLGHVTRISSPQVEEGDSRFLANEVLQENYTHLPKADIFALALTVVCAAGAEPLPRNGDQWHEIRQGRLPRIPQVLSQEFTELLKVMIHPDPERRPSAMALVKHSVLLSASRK
# Experimental: Determination of Wee1 Dissociation Constant (Kd)
# The Wee1 dissociation constants (Kd) which measures the affinity of tested compound to Wee 1 have been determined in the KINOMEscan™ KdELECT Service at DiscoveRx. KINOMEscan™ assay is based on competitive binding test. The affinity index Kd for Wee1 is calculated by qPCR measurement of the compounds that compete with the immobilized ligand and bind to the enzyme activity center.
# Wee1 kinase-tagged T7 phage strains were prepared in an E. coli BL21 strain. E. coli was grown to log-phase and infected with T7 phage and incubated with shaking at 32° C. until lysis. The lysates were centrifuged and filtered to remove cell debris. A partial length construct of human Wee1 (amino acids M291 to K575 based on reference sequence NP_003381.1) was expressed on the T7 phage coat. A short DNA sequence, embedded within the T7 phage genome, was used as amplicon for detection via qPCR. […]
# Test compounds were prepared as 111× stocks in 100% DMSO. Kas were determined using an 11-point 3-fold compound dilution series with three DMSO control points. […] The kinase concentration in the eluates was measured by qPCR. qPCR reactions were assembled by adding 2.5 μL of kinase eluate to 7.5 μL of qPCR master mix containing 0.15 μM amplicon primers and 0.15 μM amplicon probe. […]
# The constants (KdS) were calculated with a standard dose-response curve using the Hill equation: […]
# [2] = AZD1775 alone or in combination with gemcitabine, cisplatin or carboplatin, 176 evaluable patients
# Sequence of Wee1 (h) (P30291 whole entry): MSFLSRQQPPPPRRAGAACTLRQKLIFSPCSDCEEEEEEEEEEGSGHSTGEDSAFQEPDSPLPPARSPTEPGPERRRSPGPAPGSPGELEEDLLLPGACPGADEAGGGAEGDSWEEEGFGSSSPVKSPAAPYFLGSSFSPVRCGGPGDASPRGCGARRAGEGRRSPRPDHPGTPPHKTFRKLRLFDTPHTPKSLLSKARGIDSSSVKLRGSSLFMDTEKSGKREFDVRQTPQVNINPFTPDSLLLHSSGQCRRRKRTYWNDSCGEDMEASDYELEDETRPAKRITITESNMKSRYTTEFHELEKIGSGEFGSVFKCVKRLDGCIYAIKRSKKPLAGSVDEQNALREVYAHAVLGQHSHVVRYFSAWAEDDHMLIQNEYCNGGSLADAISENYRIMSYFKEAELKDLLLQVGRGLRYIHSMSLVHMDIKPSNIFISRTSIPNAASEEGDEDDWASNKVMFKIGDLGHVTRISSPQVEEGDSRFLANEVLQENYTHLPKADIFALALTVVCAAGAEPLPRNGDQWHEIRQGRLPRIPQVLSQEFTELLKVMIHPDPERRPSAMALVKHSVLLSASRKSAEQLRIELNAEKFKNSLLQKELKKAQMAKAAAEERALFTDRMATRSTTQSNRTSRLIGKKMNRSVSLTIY
Inh. (%) of Wee1 kinase enzyme activity (Wee1 (h); C 10 μm compound) [%],pIC50 (LoVo cells),"pIC50 (NCI-H1299 cells; NCI-H1299, NCI-H1299 cells)",pKd [1],pIC50 (NCI-H1299 cells; NCI-H1299 cells),Inh. (%) of Wee1 kinase enzyme activity (Wee1 (h); C 1 μm compound) [%],Structure (SMILES),partial response (advanced solid tumors; [2]) [%],stable disease as the best response (advanced solid tumors; [2]) [%],response rate (advanced solid tumors; TP53 wild-type patients (n=33)) [%],"safety and tolerability (advanced solid tumors; alone or in combination with chemotherapy, at a certain dose)",response rate (advanced solid tumors; patients with TP53 mutation (n=19)) [%]
,6.62,,,6.30,94,"O=C1c2cnc(Nc3ccc(N4CCN(CCO)CC4)cc3)nc2N2CCN=C2N1c1c(Cl)cccc1Cl [Example 182, 6-(2,6-Dichlorophenyl)-2-((4-(4-(2-hydroxyethyl)piperazin-1-yl)phenyl)amino)-8,9-dihydroimidazo[1,2-a]pyrimido[5,4-e]pyrimidin-5(6H)-one]",,,,,
,6.11,,,5.98,95,"O=C1c2cnc(Nc3ccc(N4CCOCC4)cc3)nc2N2CCN=C2N1c1c(Cl)cccc1Cl [Example 183, 6-(2,6-Dichlorophenyl)-2-((4-morpholinophenyl)amino)-8,9-dihydroimidazo[1,2-a]pyrimido[5,4-e]pyrimidin-5(6H)-one]",,,,,

# Continued, compound first:
Structure (SMILES),Inh. (%) of Wee1 kinase enzyme activity (Wee1 (h); C 10 μm compound) [%],pIC50 (LoVo cells),"pIC50 (NCI-H1299 cells; NCI-H1299, NCI-H1299 cells)",pKd [1],pIC50 (NCI-H1299 cells; NCI-H1299 cells),Inh. (%) of Wee1 kinase enzyme activity (Wee1 (h); C 1 μm compound) [%],partial response (advanced solid tumors; [2]) [%],stable disease as the best response (advanced solid tumors; [2]) [%],response rate (advanced solid tumors; TP53 wild-type patients (n=33)) [%],"safety and tolerability (advanced solid tumors; alone or in combination with chemotherapy, at a certain dose)",response rate (advanced solid tumors; patients with TP53 mutation (n=19)) [%]
C=CCn1c(=O)c2cnc(Nc3ccc(N4CCN(C)CC4)cc3)nc2n1-c1cccc(C(C)(C)O)n1 [AZD1775],97,6.41,6.54,,,,10,53,12,safe and tolerable,21
"CN1CCN(c2ccc(Nc3ncc4c(n3)N3CCN=C3N(c3ccccc3Cl)C4=O)cc2)CC1 [Example 1, 6-(2-chlorophenyl)-2-((4-(4-methylpiperazin-1-yl)phenyl)amino)-8,9-dihydroimidazo[1,2-a]pyrimido[5,4-e]pyrimidin-5(6H)-one]",96,5.45,,6.60,5.80,,,,,,
"CN1CCN(c2ccc(Nc3ncc4c(n3)N3CCN=C3N(c3c(F)cccc3Cl)C4=O)cc2)CC1 [Example 2, 6-(2-Chloro-6-fluorophenyl)-2-((4-(4-methylpiperazin-1-yl)phenyl)amino)-8,9-dihydroimidazo[1,2-a]pyrimido[5,4-e]pyrimidin-5(6H)-one]",95,6.37,6.11,7.47,,,,,,,
"CN1CCN(c2ccc(Nc3ncc4c(n3)N3CCN=C3N(c3c(Cl)cccc3Cl)C4=O)cc2CO)CC1 [Example 181, 6-(2,6-Dichlorophenyl)-2-((3-(hydroxymethyl)-4-(4-methylpiperazin-1-yl)phenyl)amino)-8,9-dihydroimidazo[1,2-a]pyrimido[5,4-e]pyrimidin-5(6H)-one]",,6.85,,,6.73,96,,,,,
